Data reported in patent publication US11739122B2, “Glycopeptide antibiotic compounds, methods for producing the same, and uses thereof” (Academia Sinica, priority 2019, dated 2023).
≈ marks a conversion by molar mass, not a printed value.

Columns and labels:
A. baumannii ATCC 19606 [1] = test: MIC, broth microdilution; type: cell-based, Acinetobacter baumannii
How it was run: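 Broth microdilution; inocula were prepared from 18–24 h agar colonies to a 0.5 McFarland standard and adjusted to about 1×10^8 CFU/mL. Plates were incubated at 37 °C for 18–24 h. The MIC was the lowest compound concentration showing no visible growth.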

MRSA ATCC 700787 = test: Minimal bactericidal concentration (MBC); type: cell-based, Staphylococcus aureus
Protocol: (§1) Minimal Bactericidal Concentration (MBC) Determination
(§2) The MBC test is an extension of the MIC examination. MBC was determined by performing subcultures on antibiotic-free agar from both the well where there was no visible growth at the MIC of a tested antibiotic and from the positive control well (with inoculum but without compounds). The plates were incubated at 37° C. for 18-24 hours. The MBC was taken as the lowest concentration of the test compound that results in more than 99.9% reduction of viable bacteria. If MBC was one or two dilutions above a given MIC value (MBC/MIC ratio was less than or equal to four), the antibiotic was considered bactericidal against the test organism.

AB ATCC 19606 = test: Minimal bactericidal concentration (MBC); type: cell-based, Acinetobacter baumannii
Protocol: as §1, §2

HEK293T cells = test: Alamar Blue cell viability assay; type: cell-based, human; conditions: up to 100 μgmL^−1; 2 and 24 h
Protocol: The Alamar Blue (AB) assay, which includes a redox indicator that changes color or emits fluorescence in response to a metabolic activity, was used to assess in vitro mammalian cell cytotoxicity (human embryonic kidney cells (HEK293T)) upon an antibiotic treatment. 2×10^5 cellsmL^−1 were allowed to adhere on 96-well plates overnight at 37° C. in a humidified incubator (5% CO2 atmosphere). Tested compounds were dissolved in 50% DMSO to make 1 mgmL^−1 of a stock solution. Cells were separately aliquoted with 5 μL of a test compound (final concentration: 100 μgmL^−1) and incubated. PBS and 50% DMSO, which was used to dissolve compounds, served as a control. Cell viability was triplicated and assessed at 2 and 24 hour time points for each test compound, on which the measurements followed the manufacturer protocol.

A. baumannii ATCC 19606 [2] = test: Inner membrane permeabilization, propidium iodide (PI); type: cell-based, Acinetobacter baumannii; conditions: AB
Protocol: Membrane Permeabilization Assay
The inner membrane and outer membrane permeabilization was determined by propidium iodide (PI) and 1-N-Phenylnaphthylamine (NPN), respectively. MRSA (ATCC 700787) and A. baumannii (ATCC 19606) at mid-log phase were harvested, washed and resuspended in a solution containing 5 mM glucose and 5 mM HEPES at pH 7.2. For the inner membrane permeabilization, 150 μL cell suspension and 50 μL PI (10 μM) were added together and preincubated for 30 minutes or 60 minutes for MRSA or A. baumannii, respectively. For outer membrane permeabilization activity, 150 μL cell suspension and 50 μL NPN (10 μM) were added together and preincubated for 60 minutes. The change of fluorescence intensity was recorded for 8 minutes at 2 minute intervals with excitation and emission wavelength set at 535 nm and 617 nm, respectively for PI and with excitation and emission wavelength set at 350 nm of 420 nm, respectively, for NPN. When 5 μL of a given test compound was added in the solution, the fluorescence intensity was recorded for another 12 minutes.

Work on `CCCCCCCC(=O)N[C@H]1[C@H](O[C@@H]2c3ccc(c(Cl)c3)Oc3cc4cc(c3O)Oc3ccc(cc3Cl)C[C@H]3NC(=O)[C@H](N)c5ccc(O)c(c5)Oc5cc(O)cc(c5)[C@H](NC3=O)C(=O)N[C@H]4C(=O)N[C@H]3C(=O)N[C@@H]2C(=O)N[C@H](C(=O)O)c2cc(O)cc(O)c2-c2cc3ccc2O)O[C@H](CO)[C@@H](O)[C@@H]1O` [Compound 14, r6,N-octyl-Glc Tei] yielded an MIC (A. baumannii ATCC 19606 [1]; A. baumannii ATCC 19606, Table 3, first figure of cell) of 50 µM, an MIC (A. baumannii ATCC 19606 [1]; A. baumannii ATCC 19606, Table 3, second figure of cell) of 74.22 mg/L and an MIC (A. baumannii ATCC 19606 [1]; AB ATCC 19606, Table 4) of 74.22 mg/L. For the same compound, the MBC (MRSA ATCC 700787) was 0.063 mg/L (≈ 0.0424 µM), the MBC/MIC (MRSA ATCC 700787) was 4 and the MBC (AB ATCC 19606) was 74.22 mg/L (≈ 49.9 µM). The MBC/MIC (AB ATCC 19606) was 1, the “cytotoxicity to HEK293T cells” value (HEK293T cells) was “did not exhibit any observable toxicity” and the “inner (cytoplasmic) membrane permeabilization, PI” value (A. baumannii ATCC 19606 [2]) was “no activity”.
